In US20250188030A1, “Biphenyl and Phenylpyridine Compounds” (Pfizer Inc., priority 2023, published 2025):
Read-outs that look alike come from different tables or passages of the source.

What was measured:
H3K9AC (HT1080 cells) = experiment: H3K9AC Sandwich ELISA Assay in HT1080 cells (KAT2A primary cell-based screening assay); design: species or system Human
Method: Human fibrosarcoma cell line HT1080 was obtained from American Type Culture Collection (ATCC), Manassas, VA USA, Cat. HT-1080 (ATCC® CCL-121™). Cells were cultured in MEM (Thermo Fisher Scientific/Gibco Life Technologies Cat. #11-095-080) plus 10% (v/v) FBS (Thermo Fisher Scientific/Gibco Life Technologies Cat. #26140-079) and 1% Penicillin-Streptomycin (Thermo Fisher Scientific/Gibco Life Technologies Cat. #15070063) at 37° C. in 5% CO2.
HT1080 cells were trypsinized, cell viability count performed, and cells suspended in complete media at 100,000 cells/ml. Cells were seeded (100 μl/well) into Greiner Bio-One CELLSTAR 96-well polystyrene flat bottom cell culture microplate (Thermo Fisher Scientific Cat. #07-000-162) at a density of 10,000 cells/well. Cells were incubated for 16 hours at 37° C. at 5% CO2. Compound dilution plates were prepared in 96-well, clear U-bottom, polypropylene plates (Corning 3365) in 100% DMSO at 10 mM stock concentration in duplicate, using 10-point serial dilution (1:3). Compounds were diluted to 1:200 in growth medium and 25 μl from intermediate compound plates were added to each well of the cell plates using a Beckman FX liquid handling system such that the highest compound concentration tested was 10 μM final, with a 0.1% final DMSO concentration in the total volume of 125 μl. Plates were incubated for 24 hours at 37° C. and 5% CO2. Plates were centrifuged at 2500 rpm for 5 minutes and medium was removed. 100 μL 0.4N HCL (Thermo Fisher Scientific Cat #SA56-1) was added to each well and plates were shaken for 60 minutes at 4C to lyse cells. 38ul 0.4N Sodium phosphase dibasic pH12.5 (Thermo Fisher Scientific Cat #S375-212) containing 2 mM Sodium Butyrate (Millipore TR1008G) and 3 mM Phenylmethanesulfonyl-fluoride (Sigma 93482) was added to each well to neutralize lysates.
Cell lysate plates were mixed for 5 minutes at room temperature on shaker and immediately frozen at −80C overnight. Cell lysates were thawed and 50 μL/well was transferred to ELISA plates (Total Histone H3 mouse (Cell Signaling Technology Cat #14269) mAb-coated Corning 1×8 strip-well, white, 96-well plates (Corning 2485)). After 2 hours room temperature incubation, plates were washed six times with PBS/0.05% Tween Wash Buffer using a BioTek plate washer. 50 μL of Histone H3K9AC rabbit detection mAb (Cell Signaling Technology Cat #9649S) diluted 1:1000 in blocking buffer (Thermo Fisher Scientific Cat #37542) was added to each well and incubated for 2 hours at room temperature. After washing, 50 μL anti-rabbit IgG, HRP-Linked antibody (Cell Signaling Technology Cat #7074) diluted 1:1000 in blocking buffer was added to each well and incubated for 60 minutes at room temperature. Following incubation, plates were washed as described above. 50 μL of luminescent GLO substrate reagent (R&D System Cat #DY993) was added to each well and incubated for 10 minutes at room temperature. Plates were read on the PHERAstar plate reader using the 96-well with Luminescent reading mode. IC50 values were calculated using a four-parameter fit with GraphPad Prism version 9.5.1 or in-house modified IDBS ActivityBase data analyzing package.

KAT2A = KAT2A (Homo sapiens (Human), UniProt Q92830); experiment: KAT2A acetyltransferase biochemical assay (RapidFire mass spectrometry, AcCoA to CoA)
[1] = read-out: KAT2A Ki at 1 μM AcCoA, 5 μM H3 1-21 peptide, 0.5 nM KAT2A, 90-minute reaction
[2] = Homo sapiens, HT-1080, H3K9AC sandwich ELISA
[3] = KAT2A Ki at 1 μM AcCoA, 5 μM H3 1-21 peptide, 0.5 nM KAT2A, 90-minute reaction

Sequence of KAT2A (Q92830 whole entry): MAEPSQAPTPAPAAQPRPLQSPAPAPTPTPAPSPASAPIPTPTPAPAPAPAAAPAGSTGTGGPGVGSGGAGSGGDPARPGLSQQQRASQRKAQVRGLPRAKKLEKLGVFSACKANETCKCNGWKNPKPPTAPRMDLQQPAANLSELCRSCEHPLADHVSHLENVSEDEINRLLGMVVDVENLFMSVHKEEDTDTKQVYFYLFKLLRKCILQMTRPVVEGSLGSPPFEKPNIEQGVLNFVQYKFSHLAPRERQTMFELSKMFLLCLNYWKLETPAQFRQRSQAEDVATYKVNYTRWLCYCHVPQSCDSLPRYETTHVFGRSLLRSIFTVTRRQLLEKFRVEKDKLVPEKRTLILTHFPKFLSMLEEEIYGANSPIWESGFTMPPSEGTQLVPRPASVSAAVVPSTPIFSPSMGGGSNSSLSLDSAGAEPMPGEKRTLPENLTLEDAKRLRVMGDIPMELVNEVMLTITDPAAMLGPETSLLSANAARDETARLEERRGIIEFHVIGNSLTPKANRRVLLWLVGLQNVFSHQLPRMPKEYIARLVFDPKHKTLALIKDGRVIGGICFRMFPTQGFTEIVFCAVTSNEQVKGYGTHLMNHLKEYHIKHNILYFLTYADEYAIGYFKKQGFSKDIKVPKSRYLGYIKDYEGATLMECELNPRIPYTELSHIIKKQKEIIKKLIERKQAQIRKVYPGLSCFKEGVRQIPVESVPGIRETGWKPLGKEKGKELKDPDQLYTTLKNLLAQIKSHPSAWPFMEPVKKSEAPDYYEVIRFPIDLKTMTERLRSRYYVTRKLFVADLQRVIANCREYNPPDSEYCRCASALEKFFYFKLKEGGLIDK

| IC50 (H3K9AC (HT1080 cells); H3K9AC sandwich ELISA) | Ki (KAT2A; [1]) | IC50 (H3K9AC (HT1080 cells); [2]) | Ki (KAT2A; [3]) | SMILES |
| --- | --- | --- | --- | --- |
| 340 nM | – | – | – | CN1CC(C)(C)C[C@H]1C(=O)N[C@@H]1CC[C@@H](Oc2cccc(CC(=O)O)c2-c2ccccc2C2CCC2)C1 (atropisomer, axis not shown) [Example H7] |
| > 1000 nM | > 99.9 nM | – | – | CC1(C)CNC[C@](F)(C(=O)N[C@@H]2CC[C@@H](Oc3cccc(CC(=O)O)c3-c3cccc(F)c3C3CCC3)C2)C1 (atropisomer, axis not shown) [Example H12, [(1 ψ)-2′-cyclobutyl-3′-fluoro-6-{[(1R,3R)-3-{[(3ξ)-3-fluoro-5,5-dimethylpiperidine-3-carbonyl]amino}cyclopentyl]oxy}[1,1′-biphenyl]-2-yl]acetic acid] |
| 9.7 nM | – | – | – | CC1(C)CNC[C@](F)(C(=O)N[C@@H]2CC[C@@H](Oc3cccc(CC(=O)O)c3-c3cccc(F)c3C3CCC3)C2)C1 (atropisomer, axis not shown) [Example H13, [(1 ψ)-2′-cyclobutyl-3′-fluoro-6-{[(1R,3R)-3-{[(3ξ)-3-fluoro-5,5-dimethylpiperidine-3-carbonyl]amino}cyclopentyl]oxy}[1,1′-biphenyl]-2-yl]acetic acid] |
| – | 24.5 nM | 41.9 nM | – | CN1CC(C)(C)C[C@H]1C(=O)N[C@@H]1CC[C@@H](Oc2cccc(C(=O)NS(C)(=O)=O)c2-c2cccc(F)c2C2CCC2)C1 (atropisomer, axis not shown) [Example I1, N-[(1R,3R)-3-({(1Ψ)-2′-cyclobutyl-3′-fluoro-6-[(methanesulfonyl)carbamoyl][1,1′-biphenyl]-2-yl}oxy)cyclopentyl]-1,4,4-trimethyl-L-prolinamide] |
| > 6680 nM | 1430 nM | – | – | CN1CC(C)(C)C[C@H]1C(=O)N[C@@H]1CC[C@@H](Oc2cccc(CC(=O)NS(C)(=O)=O)c2-c2ccccc2C2CCC2)C1 (atropisomer, axis not shown) [Example I3, N-[(1R,3R)-3-{[(1ψ)-2′-cyclobutyl-6-{2-[(methanesulfonyl)amino]-2-oxoethyl}[1,1′-biphenyl]-2-yl]oxy}cyclopentyl]-1,4,4-trimethyl-L-prolinamide] |
| – | 24.4 nM | 41.4 nM | – | CN1CC(C)(C)C[C@H]1C(=O)N[C@@H]1CC[C@@H](Oc2cccc(C(=O)NS(=O)(=O)N(C)C)c2-c2cccc(F)c2C2CCC2)C1 (atropisomer, axis not shown) [Example I7, N-[(1R,3R)-3-({(1ψ)-2′-cyclobutyl-6-[(dimethylsulfamoyl)carbamoyl]-3′-fluoro[1,1′-biphenyl]-2-yl}oxy)cyclopentyl]-1,4,4-trimethyl-L-prolinamide] |
| – | 163 nM | 3130 nM | – | CN1CC2(CCCC2)C[C@@H]1C(=O)N[C@@H]1CC[C@@H](Oc2cccc(C(=O)NS(C)(=O)=O)c2-c2cccc(F)c2C2CCC2)C1 (atropisomer, axis not shown) [Example I11, (3ξ)-N-[(1R,3R)-3-({(1ψ)-2′-cyclobutyl-3′-fluoro-6-[(methanesulfonyl)carbamoyl][1,1′-biphenyl]-2-yl}oxy)cyclopentyl]-2-methyl-2-azaspiro[4.4]nonane-3-carboxamide] |
| > 1000 nM | > 99.9 nM | – | – | CN(C)S(=O)(=O)NC(=O)Cc1cccc(O[C@@H]2CC[C@@H](NC(=O)[C@@]3(F)CNC4(CCC4)C3)C2)c1-c1cccc(F)c1C1CCC1 (atropisomer, axis not shown) [Example I15, (7S)-N-[(1R,3R)-3-({(1ψ)-2′-cyclobutyl-6-[2-(dimethylsulfamamido)-2-oxoethyl]-3′-fluoro[1,1′-biphenyl]-2-yl}oxy)cyclopentyl]-7-fluoro-5-azaspiro[3.4]octane-7-carboxamide] |
| > 1000 nM | > 99.9 nM | – | – | CC(C)S(=O)(=O)NC(=O)Cc1cccc(O[C@@H]2CC[C@@H](NC(=O)[C@@]3(F)CNC4(CCC4)C3)C2)c1-c1cccc(F)c1C1CCC1 (atropisomer, axis not shown) [Example I18, (7S)-N-[(1R,3R)-3-({(1ψ)-2′-cyclobutyl-3′-fluoro-6-[2-oxo-2-(propane-2-sulfonamido)ethyl][1,1′-biphenyl]-2-yl}oxy)cyclopentyl]-7-fluoro-5-azaspiro[3.4]octane-7-carboxamide] |
| – | 13.7 nM | 7.1 nM | – | CC(C)S(=O)(=O)NC(=O)c1cccc(O[C@@H]2CC[C@@H](NC(=O)[C@@]3(F)CNC4(CCC4)C3)C2)c1-c1cccc(F)c1C1CCC1 (atropisomer, axis not shown) [Example I19, (7S)-N-[(1R,3R)-3-({(1ψ)-2′-cyclobutyl-3′-fluoro-6-[(propane-2-sulfonyl)carbamoyl][1,1′-biphenyl]-2-yl}oxy)cyclopentyl]-7-fluoro-5-azaspiro[3.4]octane-7-carboxamide] |
| 489 nM | 75.7 nM | – | – | CN1CC(C)(C)C[C@H]1C(=O)N[C@H]1C[C@H](Oc2cccc(CC(=O)O)c2-c2cccc(F)c2C2CCC2)C[C@H]1O (atropisomer, axis not shown) [Example K5, [(1ψ)-2′-cyclobutyl-3′-fluoro-6-({(1S,3R,4S)-3-hydroxy-4-[(1,4,4-trimethyl-L-prolyl)amino]cyclopentyl}oxy)[1,1′-biphenyl]-2-yl]acetic acid] |
| 5.73 nM | 1.13 nM | – | – | CN1CC(C)(C)C[C@H]1C(=O)N[C@H]1C[C@H](Oc2cccc(CC(=O)O)c2-c2cccc(F)c2C2CCC2)C[C@H]1O (atropisomer, axis not shown) [Example K6, [(1ψ)-2′-cyclobutyl-3′-fluoro-6-({(1S,3R,4S)-3-hydroxy-4-[(1,4,4-trimethyl-L-prolyl)amino]cyclopentyl}oxy)[1,1′-biphenyl]-2-yl]acetic acid] |
| – | 1440 nM | > 10000 nM | – | CC1(C)C[C@@](F)(C(=O)N[C@@H]2CC[C@@H](Oc3ccc(C(C)(C)C(=O)O)cc3-c3cccc(F)c3C3CCC3)C2)CN1 (single isomer, unassigned) [Example A3] |
| > 1000 nM | – | – | – | CCC1(CC)C[C@@](F)(C(=O)N[C@@H]2CC[C@@H](Oc3ccc(C(C)(C)C(=O)O)cc3-c3cccc(F)c3C3CCC3)C2)CN1 (single isomer, unassigned) [Example A30] |
| 9.3 nM | – | – | – | CCC1(CC)C[C@@](F)(C(=O)N[C@@H]2CC[C@@H](Oc3ccc(C(C)(C)C(=O)O)cc3-c3cccc(F)c3C3CCC3)C2)CN1 (single isomer, unassigned) [Example A31] |
| – | 926 nM | – | – | CN1CC2(CCCC2)C[C@H]1C(=O)N[C@@H]1CC[C@@H](Oc2ccc(C(=O)O)cc2-c2ccccc2C2CCC2)C1 (single isomer, unassigned) [Example D8] |
| – | 842 nM | – | – | C[C@H](C(=O)O)c1nn(C)cc1-c1ccc(O[C@@H]2CC[C@@H](NC(=O)[C@]3(F)CNC4(CCC4)C3)C2)c(-c2cccc(F)c2C2CCC2)c1 (single isomer, unassigned) [Example J3] |
| – | 284 nM | – | – | CCn1cc(-c2ccc(O[C@@H]3CC[C@@H](NC(=O)[C@@]4(F)CNC5(CCC5)C4)C3)c(-c3cccc(F)c3C3CCC3)c2)c(C(=O)O)n1 (single isomer, unassigned) [Example J14] |
| – | – | – | > 99.9 nM | Cc1cc(NS(C)(=O)=O)n(-c2ccc(O[C@@H]3CC[C@@H](NC(=O)[C@@]4(F)CNC5(CCC5)C4)C3)c(-c3cccc(F)c3C3CCC3)c2)n1 (single isomer, unassigned) [Example L2] |
| – | – | – | 2750 nM | CC(C)(C(=O)O)c1ccc(O[C@@H]2CC[C@@H](NC(=O)[C@]3(F)CNC4(CCC4)C3)C2)c(-c2cccc(F)c2C2CCC2)c1 [Example A2, 2-(2′-cyclobutyl-3′-fluoro-6-{[(1R,3R)-3-({[(7R)-7-fluoro-5-azaspiro[3.4]oct-7-yl]carbonyl}amino)cyclopentyl]oxy}biphenyl-3-yl)-2-methylpropanoic acid] |
